Structures can show the parent of a compound that is named as a salt. Where two headings read alike, the source gives them in different places.
How the values were obtained:
serotonergic activity = assay: "wet dog shake" (WDS) behavior, serotonergic activity; assay type: in vivo, male Sprague-Dawley rats
Description: A decrease in serotonergic activity has been correlated with the occurrence of affective disorders, such as depression and anxiety. […] The test is carried out in the morning on male Sprague-Dawley rats (±180 g), divided the previous day into groups of 8 animals in residence cages. The cage used for the tests is a transparent enclosure of 12×24×30 cm in height, the floor of which is covered with a layer of sand. The compounds to be tested, dissolved either in physiological salt solution or in a citrate buffer of pH 5, are administered intraperitoneally in a different dose for each group treated. The control groups receive an intraperitoneal injection of the same vehicle (either physiological salt solution or citrate buffer). […] The mean values of the results are calculated and analyzed statistically by the Mann-Whitney method. The mean values of the number of shakes obtained for the compounds according to the invention administered intraperitoneally at the doses indicated (in mg/kg) are given in Table V below.

toxicity, Irwin's test = assay type: in vivo; settings: i.p.; death of two animals out of three within 48 hours
Description: Progressive doses of the compound to be tested are administered intraperitoneally to groups of three mice until the lethal dose is reached (dose which causes the death of two animals out of three within 48 hours).

[1] = test system: anaphylactic release of histamine, guinea-pig lung sections; assay: potentiation of the inhibition of anaphylactic histamine release by isoprenaline; assay type: cell-based, Dunkin-Hartley guinea-pigs; settings: with isoprenaline 10^-7 mole per liter
Description: (§1) Dunkin-Hartley guinea-pigs which are first passively sensitized by an intravenous injection of 1 ml of isologous antiovalbumin serum are used. Twenty-four hours after the injection, the lungs are then perfused with a Tyrode buffer to evacuate the blood, and then removed and cut into sections of 1 mm. These sections are divided up into test tubes (3 sections per tube) to give 10 experimental groups of lung sections per guinea-pig. A "positive" control group of lung sections is stimulated by addition of an ovalbumin solution (0.1 mg/ml) to induce the anaphylactic release of histamine and serves to determine the maximum amount of histamine (100%) which can be released. A "negative" control group which is not stimulated by ovalbumin serves to determine the naturally released amount of histamine (spontaneous release). In three other groups, the lung sections are incubated at 37° C. for 30 minutes in the ovalbumin solution in the presence of three different doses of the compound to be tested (one dose per group). […] At this dose, isoprenaline inhibits the release of histamine by 30 to 40%, which is verified on a control group treated only with isoprenaline alone at this dose. In addition, a supplementary control group which is not stimulated by ovalbumin is used to detect a possible spontaneous release of histamine by the highest dose of the compound tested. In each group, the histamine released in the incubation medium is measured by spectrofluorometry (D. P. EVANS et al., Life Sci., 12, (1973), 327-336).

[2] = test system: bronchospasm induced by serotonin; assay: bronchospasmolytic activity (Konzett and Roessler), bronchospasm induced by serotonin; assay type: in vivo, Dunkin-Hartley guinea-pig; settings: Cavia porcellus; intravenous; serotonin-induced bronchospasm; read-out: Doses (ID50), Serotonin
Description: (§2) This activity was measured in the Dunkin-Hartley guinea-pig by the method of H. KONZETT and […] (Naunyn Schmiedebergs Arch. exp. Path. […] The anesthetized (urethane) and curarized (gallamine) guinea-pig is placed under assisted respiration. The endotracheal pressure is recorded. […] The compound to be tested is also administered intravenously two minutes before the administration of the spasmogen and then in 3 to 4 cumulative doses in increasing amounts at intervals of 15 minutes. Six animals per compound to be tested and per spasmogen are used.

[3] = test system: plantar edema induced by immune complexes; assay: "reverse passive Arthus" (RPA) test, anti-inflammatory and anti-edema activity; assay type: in vivo, Sprague-Dawley rat; settings: Rattus norvegicus, intravenous
Description: The reaction between a soluble antigen and antibodies in the organism may lead to an acute inflammatory reaction accompanied by release of histamine, modification of vascular permeability and formation of a localized edema. […] To this end, the Arthus reaction is induced by subplantar administration of 0.1 ml of heterologous antivalbumin reaginic serum into the right hind paw and by simultaneous intravenous injection of 1 ml/kg ovalbumin (25 mg/ml). The compound to be tested is administered intravenously 30 seconds before induction of the Arthus reaction, in a least 3 different doses. A group of 6 rats is used per dose of compound to be tested. The volume of the paw is measured by plethysmometry before the Arthus reaction and 3 to 5 hours after induction of the Arthus reaction, both in the control animals and in the treated animals. The effect of a compound on the reduction in the edema for each dose and at each measurement time (3 hours and 5 hours) is expressed in % of the edema observed in the control animals. The doses of the compounds (ID30 in μmole/kg) which inhibit by 30%, on average over all the animals, the volume of the edema observed in the control animals are given in Table VII below.

[4] = test system: bronchospasm induced by acetylcholine; assay: bronchospasmolytic activity (Konzett and Roessler), bronchospasm induced by acetylcholine; assay type: in vivo, Dunkin-Hartley guinea-pig; settings: Cavia porcellus; intravenous; acetylcholine-induced bronchospasm; read-out: Doses (ID50), Acetylcholine
Description: as §2

[5] = test system: bronchospasm induced by histamine; assay: bronchospasmolytic activity (Konzett and Roessler), bronchospasm induced by histamine; assay type: in vivo, Dunkin-Hartley guinea-pig; settings: Cavia porcellus; intravenous; histamine-induced bronchospasm; read-out: Doses (ID50), Histamine
Description: as §2

[6] = test system: anaphylactic release of histamine, guinea-pig lung sections; assay: inhibition of the anaphylactic release of histamine (proper effect); assay type: cell-based, Dunkin-Hartley guinea-pigs; settings: Cavia porcellus, in vitro, read-out: Minimum inhibitory dose (MID)
Description: as §1

[7] = test system: longitudinal muscles of the ileum contracted by histamine; assay: potentiation of the myorelaxing effect of isoprenaline on the ileum; assay type: cell-based, Dunkin-Hartley guinea-pigs; settings: with isoprenaline 10^-7 mole/l; histamine 3.2 μmoles/l
Description: (cf. R. A. TURNER, "Screening Methods in Pharmacology", Ed. Acad. Press, San Diego, 1965, chapter IV, pages 43-47). […] Inhibition cycle: When the successive contractions induced by the histamine injections have become reproducible, the compound to be tested is injected immediately after the second wash. The contraction induced by the following injection of histamine is measured and compared with the average of the three preceding contractions caused by the repeated injections of histamine (control contractions). From the result obtained, the percentage inhibition of the contraction is calculated. Several cycles of histamine injection are then performed again, until the contractions of the muscle become reproducible again; the muscle is then ready for testing of another compound. The potentiating effect of a compound is measured in the course of a so-called "potentiation" cycle, which comprises three successive inhibition cycles. […] In the course of the second inhibition cycle, the percentage inhibition of the contraction obtained with the compound to be tested, injected alone at a given dose, is determined. In the third inhibition cycle, isoprenaline and the compound to be tested are injected simultaneously, and the percentage inhibition of the contraction is calculated for the dose used of the compound tested. The same experiments are repeated for each of the doses of the compounds tested.

[8] = 3 hours after induction of the Arthus reaction, read-out: Dose (ID30), 3 hours
[9] = 5 hours after induction of the Arthus reaction, read-out: Dose (ID30), 5 hours

Structure (SMILES)	Lethal dose (toxicity, Irwin's test)	Minimum potentiating dose (MPD) [1]	ED50 [2]	ED30 [3, 8]	ED30 [3, 9]	ED50 [4]	ED50 [5]	minimal effective concentration [6]	Minimum potentiating dose (MPD) [7]	further results
N[C@@H](Cc1c[nH]c2ccc(O)cc12)C(=O)O [5-HTP/carbidopa, 5-hydroxytryptophan, reference compound]	–	–	–	–	–	–	–	–	–	Average number of shakes (serotonergic activity; 5-HTP 100.0 mg/kg i.p. after carbidopa 25 mg/kg i.p., measured 90 to 120 minutes after 5HTP): 4.7 ± 1.5 shakes; Average number of shakes (serotonergic activity; 5-HTP 200.0 mg/kg i.p. after carbidopa 25 mg/kg i.p., measured 90 to 120 minutes after 5HTP): 19.6 ± 3.0 shakes
C1CCC(c2nc(NC3CC3)nc(N3CCOCC3)n2)C1 [Compound 8]	326 mg/kg	10.0 µmol/L	0.3 µmol/kg	4 µmol/kg	4 µmol/kg	0.2 µmol/kg	0.1 µmol/kg	1 µM	–	–
O=C1CN(c2nc(NC3CC3)nc(C3CC3)n2)C1 [Compound 17]	281.5 mg/kg	1.0 µmol/L	0.2 µmol/kg	1 µmol/kg	1 µmol/kg	0.2 µmol/kg	0.1 µmol/kg	3.2 µM	0.32 µmol/L	Average number of shakes (serotonergic activity; 2.8 mg/kg i.p., counted over 30 minutes): 10.5 ± 2.9 shakes
C1CN(c2nc(NC3CC3)nc(C3CC3)n2)CCS1 [Compound 18, 2-Cyclopropyl-4-cyclopropylamino-6-thiomorpholino-1,3,5-triazine]	277 mg/kg	1.0 µmol/L	–	1 µmol/kg	1 µmol/kg	–	0.003 µmol/kg	0.1 µM	0.1 µmol/L	Average number of shakes (serotonergic activity; 0.88 mg/kg i.p., counted over 30 minutes): 10.6 ± 3.0 shakes
[O-][S+]1CCN(c2nc(NC3CC3)nc(C3CC3)n2)CC1 [Compound 19, 2-Cyclopropyl-4-cyclopropylamino-6-thiomorpholino-1,3,5-triazine S-oxide]	175.6 mg/kg	0.1 µmol/L	0.04 µmol/kg	0.02 µmol/kg	0.02 µmol/kg	0.1 µmol/kg	0.02 µmol/kg	1 µM	0.32 µmol/L	Average number of shakes (serotonergic activity; 0.94 mg/kg i.p., counted over 30 minutes): 16.0 ± 4.7 shakes
O=S1(=O)CCN(c2nc(NC3CC3)nc(C3CC3)n2)CC1 [Compound 20, 2-Cyclopropyl-4-cyclopropylamino-6-thiomorpholino-1,3,5-triazine S,S-dioxide]	185 mg/kg	0.32 µmol/L	0.4 µmol/kg	1 µmol/kg	0.5 µmol/kg	0.1 µmol/kg	0.03 µmol/kg	1 µM	0.1 µmol/L	Average number of shakes (serotonergic activity; 0.99 mg/kg i.p., counted over 30 minutes): 13.6 ± 2.3 shakes
C1CN(c2nc(NC3CC3)nc(C3CC3)n2)CS1 [Compound 21, 2-Cyclopropyl-4-cyclopropylamino-6-(3-thiazolidinyl)-1,3,5-triazine]	263 mg/kg	0.32 µmol/L	–	–	–	–	–	0.1 µM	–	Average number of shakes (serotonergic activity; 2.63 mg/kg i.p., counted over 30 minutes): 5.5 ± 2.0 shakes
O=S1(=O)CCN(c2nc(NC3CC3)nc(C3CC3)n2)C1 [Compound 22, 2-Cyclopropyl-4-cyclopropylamino-6-(3-thiazolidinyl)-1,3,5-triazine S,S-dioxide]	295 mg/kg	0.032 µmol/L	–	–	–	–	–	0.1 µM	–	Average number of shakes (serotonergic activity; 0.95 mg/kg i.p., counted over 30 minutes): 8.1 ± 1.7 shakes
[O-][S+]1CCN(c2nc(NC3CC3)nc(C3CC3)n2)C1 (centres unmarked) [Compound 23, 2-Cyclopropyl-4-cyclopropylamino-6-(3-thiazolidinyl)-1,3,5-triazine S-oxide]	156 mg/kg	–	–	–	–	–	–	–	–	–
CC1(c2nc(NC3CC3)nc(N3CCOCC3)n2)CC1 [Compound 24, 2-Cyclopropylamino-4-(1-methylcyclopropyl)-6-morpholino-1,3,5-triazine]	825 mg/kg	0.32 µmol/L	–	–	–	–	0.04 µmol/kg	0.032 µM	–	Average number of shakes (serotonergic activity; 2.75 mg/kg i.p., counted over 30 minutes): 6.1 ± 2.3 shakes
CC1CC1c1nc(NC2CC2)nc(N2CCOCC2)n1.Cl (centres unmarked) [Compound 25, 2-Cyclopropylamino-4-(2-methylcyclopropyl)-6-morpholino-1,3,5-triazine hydrochloride]	99.7 mg/kg	0.032 µmol/L	–	–	–	–	–	0.032 µM	–	Average number of shakes (serotonergic activity; 1.0 mg/kg i.p., counted over 30 minutes): 19.6 ± 5.0 shakes
O=S1(=O)CCN(c2nc(NC3CC3)nc(C3CCC3)n2)CC1 [Compound 26, 2-Cyclobutyl-4-cyclopropylamino-6-thiomorpholino-1,3,5-triazine S,S-dioxide hydrochloride]	201.5 mg/kg	0.32 µmol/L	–	–	–	–	0.03 µmol/kg	1 µM	–	Average number of shakes (serotonergic activity; 1.15 mg/kg i.p., counted over 30 minutes): 11.8 ± 4.3 shakes
